{"source": "paper PMC10781884", "about": "(Computational and Structural Biotechnology Journal, 2023)", "note": "Ends that are not written are not given here.", "data": [{"test_system": "Micrococcus luteus", "test": "Minimum inhibitory and minimum bactericidal concentrations", "format": "cell-based", "conditions": "bacterium not named in the method sentence; Fig. 6 uses Micrococcus luteus", "units": {"minimum bactericidal concentrations (MBCs)": "µM"}, "values": [{"sequence": "RKWRSKRKQKSKKSSQRYM [Aq-2]", "minimum bactericidal concentrations (MBCs)": 40}, {"sequence": "KCFLRRRRSRA [Bc]", "minimum bactericidal concentrations (MBCs)": 20}, {"sequence": "VKRRRRLAGFRTVRGY [Sc]", "minimum bactericidal concentrations (MBCs)": 20}, {"sequence": "MKRRRKFSHFSFKRGY [Dr-2]", "minimum bactericidal concentrations (MBCs)": 10}]}, {"test_system": "Pseudomonas fluorescens", "test": "Bactericidal activity of MPEG1 peptides, plate count", "format": "cell-based", "conditions": "peptide 20 µM, 4 h", "values": [{"sequence": "RRNRRRSRSSLSPTTSN [Aj-2]", "effect on the propagation of P. fluorescens": "slightly enhance the propagation"}, {"sequence": "RRHKSVKRDSRGLT [Nv]", "effect on the propagation of P. fluorescens": "slightly enhance the propagation"}]}]}
